From patent US10865257B2, “Production methods for aqueous emulsion, fine powder and stretched porous body of modified polytetrafluoroethylene” (AGC Inc., priority 2015, dated 2020) come the findings set out here.

A short description of the data set: LogPOW, distribution coefficient in 1-octanol and water (OECD Test Guideline 107, 117; JIS Z7260-107). The format is physicochemical. The following applies: 1-octanol/water (1:1) distribution coefficient. The source says: In the present invention, a fluorinated anionic surfactant having a LogPOW of from 2.4 to 3.4 is used. The LogPOW is a distribution coefficient in 1-octanol and water as stipulated in OECD Test Guideline 107, 117 and Japanese Industrial Standard Z7260-107 (2000).
At the time when a mixed liquid of octanol/water (1:1) each containing a surfactant to be measured, is phase-separated, POW represents a ratio of the surfactant concentration in octanol/the surfactant concentration in water. A surfactant having a large distribution coefficient value has a high bioaccumulation property, and a surfactant having a small distribution coefficient value has a low bioaccumulation property. When the LogPOW is 3.4 or less, the bioaccumulation property is judged to be low. By the measurement conducted by the present inventors, the LogPOW of APFO was 3.67.

In general, logP refers to the decadic logarithm of the partition coefficient of the neutral form, usually between octanol and water. Take `O=C(O)C(F)(F)OC(F)(F)C(F)(F)OC(F)(F)C(F)(F)F` [APFDO, ammonium perfluoro-3,6-dioxaoctanoate]: the lipophilicity (logP) turned out to be 3.1.

Molecule `O=C(O)C(F)(F)C(F)(F)C(F)(F)C(F)(F)C(F)(F)C(F)(F)C(F)(F)F` [APFO, ammonium perfluorooctanoate] yielded a logP of 3.67.
